Data published in paper PMC5632197 (Bioorganic & medicinal chemistry, 2017).
pEC50, pIC50: −log10 of the molar value. Entries after “also recorded” stand apart in the source; their conditions may differ. Read-outs that look alike come from different tables or passages of the source.

Experiments:
[1] = mice; cited from earlier work
[2] = system: T. brucei; settings: 7-day 50 mg/kg/day intraperitoneal dosage; cited from earlier work
[3] = system: CNS stage of HAT; settings: cited from earlier work
[4] = molecular target: T1, T. brucei AdoMetDC/prozyme (Trypanosoma brucei brucei, UniProt P50244); assay: T. brucei AdoMetDC enzyme activity assay; format: biochemical; settings: for fold less active against AdoMetDC compared to parent: compared to 1 (27 versus 11a), IC50 with PI
T1 sequence (P50244 86-370 limits assumed): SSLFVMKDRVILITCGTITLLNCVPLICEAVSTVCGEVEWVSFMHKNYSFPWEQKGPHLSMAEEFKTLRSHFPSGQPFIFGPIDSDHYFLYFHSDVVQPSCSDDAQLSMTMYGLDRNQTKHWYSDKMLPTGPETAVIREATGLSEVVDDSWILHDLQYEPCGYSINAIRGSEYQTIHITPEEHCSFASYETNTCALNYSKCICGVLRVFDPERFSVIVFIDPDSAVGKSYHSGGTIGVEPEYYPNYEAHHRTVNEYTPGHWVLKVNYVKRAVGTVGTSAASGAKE

[5] = system: T. brucei Lister 427 bloodstream-form cells; assay: T. brucei cell growth inhibition assay; format: cell-based, Trypanosoma brucei brucei
[6] = AdoMetDC IC50 with PI, with 30 min pre-incubation, triplicate
[7] = AdoMetDC IC50 without PI, without pre-incubation, triplicate

| Structure (SMILES) | pIC50 [4, 6] | pIC50 [4, 7] | also measured |
| --- | --- | --- | --- |
| CN(C/C=C\CN)C[C@H]1O[C@@H](n2cnc3c(N)ncnc32)[C@H](O)[C@@H]1O [Compound 1, 5'-(((Z)-4-amino-2-butenyl)methylamino)-5'-deoxyadenosine] |  |  | brain-to-blood ratio [1]: 1.7%; cure of mice infected with T. brucei [2]: sterile cure; cure in mouse model of the CNS stage of HAT [3]: not efficacious; also recorded: neither compound led to a cure |
| Cc1nc2c(N)ncnc2n1[C@@H]1O[C@H](CN(C)C/C=C\CNC(=O)OC(C)C)[C@@H](O)[C@H]1O [Compound 3c] | < 4.30 | < 4.30 |  |
| CCCC(=O)NC/C=C\CN(C)C[C@H]1O[C@@H](n2cnc3c(N)ncnc32)[C@H](O)[C@@H]1O [Compound 5c] | < 4.30 | < 4.30 |  |
| CC(=O)NC/C=C\CN(C)C[C@H]1O[C@@H](n2cnc3c(N)ncnc32)[C@H](OC(C)=O)[C@@H]1OC(C)=O [Compound 6a] | < 4.30 | < 4.30 |  |
| CCC(=O)NC/C=C\CN(C)C[C@H]1O[C@@H](n2cnc3c(N)ncnc32)[C@H](OC(C)=O)[C@@H]1OC(C)=O [Compound 6b] | < 4.30 | < 4.30 |  |
| CCCC(=O)NC/C=C\CN(C)C[C@H]1O[C@@H](n2cnc3c(N)ncnc32)[C@H](OC(C)=O)[C@@H]1OC(C)=O [Compound 6c] | < 4.30 | < 4.30 |  |
| Cc1nc2c(N)ncnc2n1[C@@H]1O[C@H](CN(C)C/C=C\CNC(=O)OC(C)(C)C)[C@H]2OC(C)(C)O[C@H]21 [Compound 10a] | < 4.30 | < 4.30 |  |
| Cc1nc2c(N)ncnc2n1[C@@H]1O[C@H](CN(C/C=C\CNC(=O)OC(C)(C)C)C2CC2)[C@H]2OC(C)(C)O[C@H]21 [Compound 10c] |  | < 4.30 |  |
| CN(C/C=C\CN)C[C@H]1O[C@@H](n2cnc3c(N)ncnc32)[C@@H]2OC(C)(C)O[C@@H]21 [Compound 11a] |  |  | fold less active against AdoMetDC compared to parent [4]: ~ 50 fold; fold reduced activity in T. b. brucei cell growth assay compared to 1 ([5]; EC50 compared to parent MDL 73811 (1)): ~ 50 fold |
| CC1(C)O[C@@H]2[C@H](O1)[C@@H](CN(C/C=C\CN)CCF)O[C@H]2n1cnc2c(N)ncnc21 [Compound 11b] | < 4.30 | < 4.30 |  |
| Cc1nc2c(N)ncnc2n1[C@@H]1O[C@H](CN(C/C=C\CN)C2CC2)[C@H]2OC(C)(C)O[C@H]21 [Compound 11c] | < 4.30 | < 4.30 |  |
| Cc1nc2c(N)ncnc2n1[C@@H]1O[C@H](CN(C/C=C\CN)CCO)[C@H]2OC(C)(C)O[C@H]21 [Compound 11d] | < 4.30 | < 4.30 |  |
| NC/C=C\CN(CCF)C[C@H]1O[C@@H](n2cnc3c(N)ncnc32)[C@H](O)[C@@H]1O [Compound 12b] |  | < 4.30 |  |
| Cc1nc2c(N)ncnc2n1[C@@H]1O[C@H](CN(C/C=C\CN)C2CC2)[C@@H](O)[C@H]1O [Compound 12c] | < 4.30 | < 4.30 |  |
| CN(CC=CCN)CC1OC(n2cnc3c(N)ncnc32)C2OC3(CCCCC3)OC12 (stereo not drawn) [Compound 22] |  |  | pIC50 ([4]; read-out: AdoMetDC IC50, pre-incubation not stated): < 4.30; pEC50 ([5]; read-out: EC50 (T. b. brucei), 48 h cell viability, triplicate): < 4.60 |
| CNc1ncnc2c1ncn2[C@@H]1O[C@H](CN(C)C/C=C\CN)[C@H]2OC(C)(C)O[C@H]21 [Compound 27] |  | < 4.30 | fold less active against AdoMetDC compared to parent [4]: 3- to 4 fold |
| CNc1ncnc2c1ncn2[C@@H]1O[C@H](CN(C)C/C=C\CN)[C@@H](O)[C@H]1O [Compound 28a] |  |  | fold less active against AdoMetDC compared to parent [4]: 3- to 4 fold |
| CN(C/C=C\CN)C[C@H]1O[C@@H](n2cnc3c(N(C)C)ncnc32)[C@H](O)[C@@H]1O [Compound 28b] |  |  | fold less active against AdoMetDC compared to parent [4]: ~ 20 fold |
| CC(C)Nc1ncnc2c1ncn2[C@@H]1O[C@H](CN(C)C/C=C\CN)[C@@H](O)[C@H]1O [Compound 28c] |  |  | fold less active against AdoMetDC compared to parent [4]: 3- to 4 fold |
| CCOc1ncnc2c1ncn2[C@@H]1O[C@H](CN(C)C/C=C\CN)[C@@H](O)[C@H]1O [Compound 28d] |  |  | fold less active against AdoMetDC compared to parent [4]: ~16 fold |
| CN(C/C=C\CN)C[C@H]1O[C@@H](n2cnc3cncnc32)[C@@H]2OC(C)(C)O[C@@H]21 [Compound 30] | < 4.30 | < 4.30 |  |
| CCCCCCCCC(=O)Nc1ncnc2c1ncn2[C@@H]1O[C@H](CN(C)C/C=C\CN)[C@H]2OC(C)(C)O[C@H]21 [Compound 31] |  |  | fold more potent inhibition of AdoMetDC enzymatic activity than 11a ([4]; compared to comparator 11a): 3.5 fold; fold more potent inhibition of T.b. brucei proliferation than 11a ([5]; compared to comparator 11a): 2.6 fold |
